# Patent US20220211726A1, “UVEAL MELANOMA TREATMENT” (Katholieke Universiteit Leuven, priority 2019, published 2022)
# Assays:
# [1] = test system: uveal melanoma cell line (UM92.1); assay: IncuCyte Caspase 3/7 Green apoptosis assay; format: cell-based; conditions: UM92.1, increasing concentrations of Tigecycline
# Description: (§1) For IncuCyte Proliferation Assays, cells were plated in 96-well plates (TPP) at the appropriate density (between 2.5×10^3, to 1.5×10^4). Cells were treated with increasing amounts of Tigecycline or Doxycycline and cultured for 72 h. Apoptotic cells were labelled with the IncuCyte Caspase 3/7 Green Apoptosis Assay Reagent (Essen BioScience). Four images per well were taken at 2-hour intervals using an IncuCyte ZOOM system (Essen BioScience). The percentage of cell confluency and fluorescent green counts indicating apoptotic cells were measured and analysed by the IncuCyte ZOOM software.
# [2] = test system: uveal melanoma PDX model Mel-077; assay: Uveal melanoma PDX experiment, tumour volume; format: in vivo; conditions: Mel-077 PDX mice, Tigecycline 50 mg/kg daily i.p. monotreatment vs vehicle (DMSO), FIG. 5
# Description: Tumour pieces were implanted subcutaneously in the interscapular fat pad of female NMRI nude, 4-week-old females. Once tumours reached 250 mm^3, the mice were enrolled into treatment cohorts. Mice were treated with Tigecycline (50 mg/kg) administered by daily i.p. injection. No specific randomization method was used.
# [3] = test system: uveal melanoma (UM 92.1) cell line; assay: IncuCyte proliferation assay (% cell confluency); format: cell-based; conditions: UM 92.1 (GNAQ mutant), increasing concentrations of Tigecycline, 72 h, FIG. 4
# Description: as §1
structure (smiles),measurement,setting,value
CN(C)c1cc(NC(=O)CNC(C)(C)C)c(O)c2c1C[C@H]1C[C@H]3[C@H](N(C)C)C(O)=C(C(N)=O)C(=O)[C@@]3(O)C(O)=C1C2=O [Tigecycline],apoptosis (activated caspase 3/7 staining),[1],no increase in apoptosis
same,tumour growth / progression (tumour volume),[2],sufficient to stabilise tumour growth and significantly delay progression
same,cell growth (measured as % of cell confluency),[3],significant and dose-dependent decrease in cell growth
